Results published in US20260285866A1, “MODULATORS OF TRPML, THEIR COMPOSITIONS AND METHODS OF USE” (Caraway Therapeutics, Inc., priority 2024, published 2026).

What was measured:
Type in all cases: cell-based
Human TRPML1 = Human TRPML1 (Homo sapiens, UniProt Q9GZU1, L15A/L16A/L577A/L578A); assay: Fluorescent TRPML1 assay (Fluo4-AM, HEK-293 Trex cells expressing hTRPML1); conditions: fluorescent calcium assay, doxycycline-induced hTRPML1
Outline: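 Doxycycline-induced (0.5 μg/mL) HEK-293 Trex cells stably expressing surface-targeted mutant hTRPML1, loaded with 1 μM Fluo4-AM, then suspended in modified Ringer's with 10 mM calcium and added to compounds (20 μM to 6 nM final, half-log steps, triplicate). Fluorescence read at ex 480/em 540; percent activity versus plate controls, EC50 by non-linear regression.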

Human TRPML2 = biological target: T1, Human TRPML2 (Homo sapiens, UniProt Q8IZK6); assay: Fluorescent TRPML2 assay (as for TRPML1); conditions: fluorescent calcium assay as for TRPML1, TRPML2 subtype
T1 construct: expressed in transfected cells
T1 sequence (Q8IZK6 1-566): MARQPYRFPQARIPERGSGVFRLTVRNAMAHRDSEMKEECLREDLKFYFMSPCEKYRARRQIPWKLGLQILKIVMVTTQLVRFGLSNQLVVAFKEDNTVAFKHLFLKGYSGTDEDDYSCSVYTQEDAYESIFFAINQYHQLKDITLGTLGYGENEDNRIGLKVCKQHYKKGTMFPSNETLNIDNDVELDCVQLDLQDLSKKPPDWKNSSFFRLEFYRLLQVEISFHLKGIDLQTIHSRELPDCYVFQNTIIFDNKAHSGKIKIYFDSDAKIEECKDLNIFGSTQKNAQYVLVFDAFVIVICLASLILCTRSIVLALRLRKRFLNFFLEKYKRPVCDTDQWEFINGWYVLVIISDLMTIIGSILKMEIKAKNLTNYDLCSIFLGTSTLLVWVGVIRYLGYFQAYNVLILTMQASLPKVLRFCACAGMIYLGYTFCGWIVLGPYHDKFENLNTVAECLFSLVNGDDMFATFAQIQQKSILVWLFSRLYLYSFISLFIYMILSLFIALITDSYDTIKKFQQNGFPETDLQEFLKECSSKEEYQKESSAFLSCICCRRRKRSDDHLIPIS
Experimental: HEK-293 Trex cells were stably transfected with a construct consisting of the human coding sequence for TRPML1 cloned into the tet-inducible plasmid pCDNA5 T/O. Mutations were introduced into the TRPML1 sequence to facilitate expression on the cell surface (Silvia Vergarajauregui, Rosa Puertollano Traffic. 2006 March; 7(3): 337-353). Briefly, the cells are cultured in 150 mm round tissue culture dishes containing 20 mL of media. The day before the assay the cells are rinsed with DPBS-Ca-Mg and then treated briefly with Trypsin-EDTA. The Trypsin-EDTA is diluted with growth media, and cells are counted. 38×10^6 cells are re-plated into 150 mm round tissue culture dishes in media containing 0.5 μg/mL doxycycline to induce expression of hTRPML1.
The day of the experiment cells are lifted from the plates as above and collected by centrifugation. The cells are then suspended in dye loading buffer consisting of Ringer's solution supplemented with 0.1% Pluronic Acid and 1 micromolar Fluo4-AM dye. Cells are loaded for ~60 minutes in the dark with occasional mixing. The cells are collected by centrifugation, the loading media aspirated, and the cells resuspended in 25 mL Ringer's solution and incubated ~60 minutes in the dark. The cells are again collected by centrifugation, rinsed in Ringer's Solution and resuspended to 0.2×10^6 cells/mL in modified Ringer's solution containing 10 mM calcium.
Compounds are dissolved to a concentration of 10 millimolar with DMSO. Compound plates are created by dispensing compounds into 384 well black wall clear bottom plates (Greiner 781091). Positive and negative controls are included on each plate. Typically, different amounts of each compound are tested ranging from 100 nanoMoles (20 micromolar final concentration) decreasing in half-log steps to 31 picoMoles (6 nanomolar final concentration). Each concentration is typically tested in triplicate.
50 microliters of dye-loaded cells are dispensed into each well of the compound assay plate created above. The fluorescence in each well is then determined with an excitation wavelength of 480 nm and an emission wavelength of 540 nm using either a Molecular Devices SpectraMax multimode plate reader or a Hamamatsu FDSS/uCell plate imager.
The resulting fluorescence for each well is exported as an ascii file and loaded into our LIMS for analysis. The percent activity of each compound at each concentration is determined by comparison to the positive and negative control wells included in each plate.
Assays for TRPML2 and TRPML3 were performed as above for TRPML1, by substituting the appropriate TRPML2 or TRPML3 subtype for the TRPML1.
EC50 values were calculated using a non-linear regression of Prism. In the table, “A” indicates an EC50 of less than 100 nM, “B” indicates an EC50 range from 100 nM to 500 nM: “C” indicates an EC50 range from 500 nM to 2 μM; and “D” indicates an EC50 greater than 2 μM.

Human TRPML3 = biological target: T2, Human TRPML3 (Homo sapiens, UniProt Q8TDD5); assay: Fluorescent TRPML3 assay (as for TRPML1); conditions: fluorescent calcium assay as for TRPML1, TRPML3 subtype
T2 construct: expressed in transfected cells
T2 sequence (Q8TDD5 1-553): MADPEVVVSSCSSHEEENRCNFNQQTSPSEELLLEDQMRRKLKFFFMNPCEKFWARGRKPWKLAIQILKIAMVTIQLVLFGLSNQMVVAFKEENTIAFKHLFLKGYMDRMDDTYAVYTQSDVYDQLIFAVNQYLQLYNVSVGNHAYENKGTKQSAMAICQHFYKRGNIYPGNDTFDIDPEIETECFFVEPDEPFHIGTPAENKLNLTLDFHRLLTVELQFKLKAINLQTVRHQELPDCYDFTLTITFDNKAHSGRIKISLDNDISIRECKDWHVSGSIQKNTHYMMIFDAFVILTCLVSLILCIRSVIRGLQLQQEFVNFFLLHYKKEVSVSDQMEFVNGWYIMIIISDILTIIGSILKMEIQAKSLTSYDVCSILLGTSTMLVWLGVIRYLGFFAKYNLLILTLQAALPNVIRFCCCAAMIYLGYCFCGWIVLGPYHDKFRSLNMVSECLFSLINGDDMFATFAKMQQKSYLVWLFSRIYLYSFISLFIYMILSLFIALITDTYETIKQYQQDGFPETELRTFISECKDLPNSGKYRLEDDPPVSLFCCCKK
Outline: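 Tet-inducible HEK-293 Trex cells expressing human TRPML2 or TRPML3, induced overnight with 0.5 μg/mL doxycycline, loaded with 1 μM Fluo4-AM and suspended in Ringer's solution with 10 mM calcium. Compounds tested in triplicate from 20 μM to 6 nM final in half-log steps; fluorescence at 480/540 nm. EC50 by non-linear regression, binned A–D.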

Chain of Human TRPML1 (Q9GZU1 whole entry L15A/L16A/L577A/L578A): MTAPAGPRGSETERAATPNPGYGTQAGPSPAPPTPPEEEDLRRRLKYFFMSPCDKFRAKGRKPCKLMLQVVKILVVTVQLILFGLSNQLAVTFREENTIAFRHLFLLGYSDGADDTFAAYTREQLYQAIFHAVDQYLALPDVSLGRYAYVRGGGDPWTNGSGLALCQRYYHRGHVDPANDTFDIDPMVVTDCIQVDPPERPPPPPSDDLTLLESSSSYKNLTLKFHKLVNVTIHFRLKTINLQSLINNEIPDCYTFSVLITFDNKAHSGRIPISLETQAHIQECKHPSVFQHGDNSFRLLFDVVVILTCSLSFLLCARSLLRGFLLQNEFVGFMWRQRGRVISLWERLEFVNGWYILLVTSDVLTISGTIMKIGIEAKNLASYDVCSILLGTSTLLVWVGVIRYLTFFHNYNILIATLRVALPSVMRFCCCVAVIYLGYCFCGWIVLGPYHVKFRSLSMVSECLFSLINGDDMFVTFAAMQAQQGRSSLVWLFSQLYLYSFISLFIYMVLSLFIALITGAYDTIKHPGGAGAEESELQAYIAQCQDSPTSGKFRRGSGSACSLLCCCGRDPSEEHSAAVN

EC50 (Human TRPML1) [nM]	EC50 (Human TRPML2) [nM]	EC50 (Human TRPML3) [nM]	SMILES
500 to 2000	> 2000	> 2000	C[C@@H]1CN(c2ncnc3c2c(-c2ccncc2)cn3-c2cccc(C#N)c2)[C@@H](C)CN1C(=O)C(C)(C)O [Compound 135, 3-(4-((2S,5R)-4-(2-hydroxy-2-methylpropanoyl)-2,5-dimethylpiperazin-1-yl)-5-(pyridin-4-yl)-7H-pyrrolo[2,3-d]pyrimidin-7-yl)benzonitrile]
100 to 500	> 2000	500 to 2000	C[C@@H]1CN(c2ncnc3c2c(-c2ccncc2F)cn3-c2cc(C#N)ccn2)[C@@H](C)CN1C(=O)C(C)(C)O [Compound 146, 2-(5-(3-fluoropyridin-4-yl)-4-((2S,5R)-4-(2-hydroxy-2-methylpropanoyl)-2,5-dimethylpiperazin-1-yl)-7H-pyrrolo[2,3-d]pyrimidin-7-yl)isonicotinonitrile]
500 to 2000	> 2000	500 to 2000	Cc1cnccc1-c1cn(-c2cc(C#N)ccn2)c2ncnc(N3C[C@@H](C)N(C(=O)C(C)(C)O)C[C@@H]3C)c12 [Compound 147, 2-(4-((2S,5R)-4-(2-hydroxy-2-methylpropanoyl)-2,5-dimethylpiperazin-1-yl)-5-(3-methylpyridin-4-yl)-7H-pyrrolo[2,3-d]pyrimidin-7-yl)isonicotinonitrile]
500 to 2000	> 2000	> 2000	C[C@@H]1CN(c2ncnc3c2c(-c2ccncc2)cn3-c2cccc(OC(F)(F)F)c2)[C@@H](C)CN1C(=O)C(C)(C)O [Compound 148, 1-((2R,5S)-2,5-dimethyl-4-(5-(pyridin-4-yl)-7-(3-(trifluoromethoxy)phenyl)-7H-pyrrolo[2,3-d]pyrimidin-4-yl)piperazin-1-yl)-2-hydroxy-2-methylpropan-1-one]
< 100	500 to 2000	100 to 500	C[C@@H]1CN(c2ncnc3c2c(-c2ccncc2)cn3-c2cc(C#N)ccn2)[C@@H](C)CN1C(=O)C1(O)CCCC1 [Compound 150, 2-(4-((2S,5R)-4-(1-hydroxycyclopentane-1-carbonyl)-2,5-dimethylpiperazin-1-yl)-5-(pyridin-4-yl)-7H-pyrrolo[2,3-d]pyrimidin-7-yl)isonicotinonitrile]
< 100	500 to 2000	100 to 500	C[C@@H]1CN(c2ncnc3c2c(-c2ccncc2)cn3-c2cc(C#N)ccn2)[C@@H](C)CN1C(=O)C1(O)CCCCC1 [Compound 151, 2-(4-((2S,5R)-4-(1-hydroxycyclohexane-1-carbonyl)-2,5-dimethylpiperazin-1-yl)-5-(pyridin-4-yl)-7H-pyrrolo[2,3-d]pyrimidin-7-yl)isonicotinonitrile]
100 to 500	> 2000	< 100	C[C@@H]1CN(c2ncnc3c2c(-c2ccccc2F)cn3-c2cc(C#N)ccn2)[C@@H](C)CN1C(=O)CC(C)(C)O [Compound 158, 2-(5-(2-fluorophenyl)-4-((2S,5R)-4-(3-hydroxy-3-methylbutanoyl)-2,5-dimethylpiperazin-1-yl)-7H-pyrrolo[2,3-d]pyrimidin-7-yl)isonicotinonitrile]
< 100	500 to 2000	100 to 500	C[C@@H]1CN(c2ncnc3c2c(-c2ccccc2)cn3-c2cc(C#N)ccn2)[C@@H](C)CN1C(=O)CC(C)(C)O [Compound 159, 2-(4-((2S,5R)-4-(3-hydroxy-3-methylbutanoyl)-2,5-dimethylpiperazin-1-yl)-5-phenyl-7H-pyrrolo[2,3-d]pyrimidin-7-yl)isonicotinonitrile]
100 to 500	500 to 2000	< 100	C[C@@H]1CN(c2ncnc3c2c(-c2ccccc2)cn3-c2cc(C#N)ccn2)[C@@H](C)CN1C(=O)CC(O)(C(F)(F)F)C(F)(F)F [Compound 161, 2-(4-((2S,5R)-2,5-dimethyl-4-(4,4,4-trifluoro-3-hydroxy-3-(trifluoromethyl)butanoyl)piperazin-1-yl)-5-phenyl-7H-pyrrolo[2,3-d]pyrimidin-7-yl)isonicotinonitrile]
< 100	> 2000	< 100	COC1(C(=O)N2C[C@H](C)N(c3ncnc4c3c(-c3ccccc3F)cn4-c3cc(C#N)ccn3)C[C@H]2C)CN(C)C1 [Compound 163, 2-(5-(2-fluorophenyl)-4-((2S,5R)-4-(3-methoxy-1-methylazetidine-3-carbonyl)-2,5-dimethylpiperazin-1-yl)-7H-pyrrolo[2,3-d]pyrimidin-7-yl)isonicotinonitrile]
< 100	< 100	< 100	CCOC(C)(C)C(=O)N1C[C@H](C)N(c2ncnc3c2c(-c2ccccc2F)cn3-c2cc(C#N)ccn2)C[C@H]1C [Compound 164, 2-(4-((2S,5R)-4-(2-ethoxy-2-methylpropanoyl)-2,5-dimethylpiperazin-1-yl)-5-(2-fluorophenyl)-7H-pyrrolo[2,3-d]pyrimidin-7-yl)isonicotinonitrile]
< 100	< 100	< 100	C[C@@H]1CN(c2ncnc3c2c(-c2ccccc2F)cn3-c2cc(C#N)ccn2)[C@@H](C)CN1C(=O)C(C)(C)OCC(F)(F)F [Compound 165, 2-(4-((2S,5R)-2,5-dimethyl-4-(2-methyl-2-(2,2,2-trifluoroethoxy)propanoyl)piperazin-1-yl)-5-(2-fluorophenyl)-7H-pyrrolo[2,3-d]pyrimidin-7-yl)isonicotinonitrile]
< 100	500 to 2000	< 100	COC1(C(=O)N2C[C@H](C)N(c3ncnc4c3c(-c3ccccc3F)cn4-c3cc(C#N)ccn3)C[C@H]2C)COC1 [Compound 166, 2-(5-(2-fluorophenyl)-4-((2S,5R)-4-(3-methoxyoxetane-3-carbonyl)-2,5-dimethylpiperazin-1-yl)-7H-pyrrolo[2,3-d]pyrimidin-7-yl)isonicotinonitrile]
